Publication PMC6755085, “Cyclic oligoadenylate signalling mediates Mycobacterium tuberculosis CRISPR defence” (Nucleic Acids Research, 2019)

Target: T1, TsuCsx1 (Thioalkalivibrio sulfidiphilus, UniProt B8GSI1)
T1 construct: gene Tgr7_1803; full-length; N-terminal His8 fusion (pEV5HisTEV), no tag cleavage described; synthetic gene; E. coli C43; dimer
Assay: activation of cleavage of […]-labelled RNA, denaturing PAGE
Assay type: biochemical
Conditions: synthetic cA4, 1 µM; 0.5 µM TsuCsx1 dimer; 20 mM Tris-HCl, 150 mM NaCl, 1 mM DTT, pH 7.5; 35 °C; activator

T1 sequence (B8GSI1 entry or part of it): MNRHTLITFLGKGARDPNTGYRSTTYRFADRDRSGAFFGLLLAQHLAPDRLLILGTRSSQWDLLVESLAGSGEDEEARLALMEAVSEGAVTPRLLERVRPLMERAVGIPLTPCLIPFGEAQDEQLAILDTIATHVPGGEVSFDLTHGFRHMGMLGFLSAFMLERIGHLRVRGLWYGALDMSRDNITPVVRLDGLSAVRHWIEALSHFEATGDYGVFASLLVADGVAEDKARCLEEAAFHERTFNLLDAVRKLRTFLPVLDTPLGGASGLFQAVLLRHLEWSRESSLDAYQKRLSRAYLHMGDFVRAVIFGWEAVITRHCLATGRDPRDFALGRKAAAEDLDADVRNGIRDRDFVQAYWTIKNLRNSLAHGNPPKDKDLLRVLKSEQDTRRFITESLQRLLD

SMILES: Nc1ncnc2c1ncn2[C@@H]1O[C@@H]2COP(=O)(O)O[C@H]3[C@@H](O)[C@H](n4cnc5c(N)ncnc54)O[C@@H]3COP(=O)(O)O[C@H]3[C@@H](O)[C@H](n4cnc5c(N)ncnc54)O[C@@H]3COP(=O)(O)O[C@H]3[C@@H](O)[C@H](n4cnc5c(N)ncnc54)O[C@@H]3COP(=O)(O)O[C@H]2[C@H]1O [cA4]
- activation of cleavage of 32P-labelled RNA, denaturing PAGE: TsuCsx1 was strongly activated by synthetic cA4 but not by cA6
